The subject of this experiment is our antisera (rabbit polyclonal antisera against BSA-MBG conjugate). The experiment can be described thus: competition ELISA with rabbit polyclonal anti-MBG antisera. In kind it is binding. Particulars: competition assay. The protocol:
Initially, both BSA and BLG were employed as the carrier protein. In the former case, excess BSA was added to the reaction mixture to inhibit anti-BSA antibodies from binding to the conjugate. When the BLG-marinobufagenin congugate became available, BLG-marinobufagenin was used for antibody detection. This ELISA format was used as the basis for a competitive ELISA for the detection of marinobufagenin in body specimens.
In an alternative approach, rabbits were immunized with the BSA-MBG conjugate for the production of polyclonal antisera. […] The resulting polyclonal sera were assessed for the presence of MBG-specific antibodies by ELISA (FIG. 11). In this particular format, two of the rabbits produced a strong humoral immune response that allowed dilution of the primary (rabbit) antiserum down to 1 in 4*10^6, even when using a relatively insensitive photometric readout. […] This particular assay has now been equipped with a chemifluorescent readout (using commercially available reagents) and has now reached the target sensitivity of less than 10 pg MBG/ml. As expected, rat urine samples can be measured without prior treatment, but rat plasma and/or serum samples require solid phase extraction using a C8 solid phase and acetonitrile in the mobile phase. Upon drying the eluate of obtained from the extraction cartridge by vacuum centrifugation, MBG can be measured in the circulation of the rat.
A general note: An ELISA detects its analyte on a solid surface through an enzyme-linked reagent.

For the compound `C[C@]12CC[C@H](O)C[C@H]1CC[C@@H]1[C@@H]2CC[C@]2(C)[C@@H](c3ccc(=O)oc3)C[C@H]3O[C@]132` [RBG, resibufogenin], the cross-reactivity with antisera result is on record as “only measurable at extremely high doses”.

(Values after patent US20110207154A1, “METHOD FOR DETERMINATION OF MARIN[…] AND COMPOUNDS […] SUCH METHOD” (SCOTT & WHITE HEALTHCARE, priority 2010, published 2011).)
